What is called Kp is the ratio of the level in a tissue or fluid to that in plasma or blood. The term clearance denotes the rate of elimination divided by the concentration. Lower therefore signals inefficient removal. As usually defined, the half-life is the time needed for the level to fall by half in the phase considered. A higher half-life goes with slow loss. For orientation: bioavailability means dose-corrected exposure relative to a reference, in per cent. A lower bioavailability goes with poor availability. Usually Vd stands for the apparent volume that relates the amount in the body to the concentration in plasma or blood. Lower therefore signals little distribution into tissue.

We go through 5 compounds from ChEMBL document CHEMBL1143157, “New fused benzazepine as selective D3 receptor antagonists. Synthesis and biological evaluation. Part 2: [g]-fused and hetero-fused systems” (Bioorg Med Chem Lett, 2008).

Series [1] in a line: in vivo. The settings on record: rat, brain and blood, iv.
A short description of series [2]: in vivo. The settings on record: rat, whole blood.
Series [3] in a line: in vivo. The settings on record: rat.
The nature of series [4]: in vivo. Particulars: rat, po.
Series [5] can be described thus: in vivo. The settings on record: rat. This is another data set of the same source.

The structures appear in SMILES notation.

In turn, `Cc1ccc2c(-c3nnc(SCCCN4CCc5ccc6oc(C)nc6c5CC4)n3C)cccc2n1` gave a Kp at 1 h in “in vivo [1]” of 2.5. For the same compound, in the series “in vivo [2]”, the clearance came out at 48 mL/min/kg. The same compound had a half-life in “in vivo [3]” of 1.7 h. In addition, the bioavailability in the series “in vivo [4]” was found to be 15%.

The compound `Cc1ncoc1-c1nnc(SCCCN2CCc3ccc4oc(C(F)(F)F)nc4c3CC2)n1C` showed a Kp at 1 h in the series “in vivo [1]” of 0.8. Further, the clearance in “in vivo [2]” turned out to be 35 mL/min/kg. This compound also gave a half-life in the series “in vivo [3]” of 0.6 h. For the same compound, in the series “in vivo [5]”, the Vd was determined as 1.6 L/kg. The same compound had a bioavailability in the series “in vivo [4]” of 63%.

In the case of `Cc1ccc2c(-c3nnc(SCCCN4CCc5ccc6nc(C(C)(F)F)oc6c5CC4)n3C)cccc2n1`, the Kp at 1 h in the series “in vivo [1]” came out at 4. This compound also came in with a clearance in “in vivo [2]” of 43 mL/min/kg. In “in vivo [5]”, the Vd amounted to 3.31 L/kg. In “in vivo [4]”, the bioavailability stood at 8%.

`Cc1ncoc1-c1nnc(SCCCN2CCc3ccc4oc(C(C)(F)F)nc4c3CC2)n1C` yielded a Kp at 1 h in “in vivo [1]” of 0.2. Moreover, the clearance in the series “in vivo [2]” was 9 mL/min/kg. This compound also gave a half-life in the series “in vivo [3]” of 1.2 h. Moreover, the distribution volume (Vd) in “in vivo [5]” was found to be 0.8 L/kg. Also, in the series “in vivo [4]”, the bioavailability is 54%.

In turn, `CCc1nc2c3c(ccc2o1)CCN(CCCSc1nnc(-c2ocnc2C)n1C)CC3` had a partition ratio (Kp) at 1 h in the series “in vivo [1]” of 0.1. In “in vivo [2]”, this compound came in with a clearance of 5 mL/min/kg. The same compound showed a half-life in “in vivo [3]” of 1.9 h. The distribution volume (Vd) in “in vivo [5]” stood at 0.61 L/kg. This compound also yielded a bioavailability in the series “in vivo [4]” of 73%.
